One data set relates to S. aureus ATCC 29213. Kind of data set: Minimum inhibitory concentration (MIC) assay, MSSA. The class given is cell-based. Conditions: Staphylococcus aureus, broth microdilution. The method, then:
(§1) The preparation of compounds listed in Table I can be carried out under conditions analogous to those described in the examples above. Those of skill in the art will recognize routine changes in reaction conditions and starting materials needed to produce the listed compounds. For example, compound 5 in Table I, is prepared by the method shown above, except tert-butyl (1-(pyrrolidin-3-yl)ethyl)carbamate, prepared by the method shown in Schoeder, et al., J. Heterocyclic Chem., 29: 1481-1498 (1992), is used as the amine starting material. Compound activity was evaluated in a standard minimal inhibitory concentration assay such as the assay provided in Example 4. Compound cytotoxicity is determined using a standard assay of cytotoxicity such as the assay provided in Example 5. Compounds 10, 14, and 20 of Table I are provided as comparative examples.
(§2) The antimicrobial activity of the compounds of the invention may be evaluated by a number of methods, including the following visual minimum inhibitory concentration (MIC) assay. This assay determines the minimum concentration of compound required to inhibit growth of a bacterial strain.
(§3) Whole-cell antibacterial activity is determined by broth microdilution using conditions recommended by the NCCLS (see National Committee for Clinical Laboratory Standards. 2001. Performance standards for antimicrobial susceptibility testing: 11th informational supplement. Vol. 21, no. 1, M100-S11. National Committee for Clinical Laboratory Standards, Wayne, Pa.). Test compounds are dissolved in DMSO and diluted 1:50 in Mueller-Hinton II broth (Becton-Dickinson) to produce a 256 μg/ml stock solution. In a 96-well microtiter plate, the compound solution is serially two-fold diluted in Mueller-Hinton II broth. After the compounds are diluted, a 50 μl aliquot of the test organism (˜1×10^6 cfu/mL) is added to each well of the microtiter plate. The final test concentrations range from 0.125-128 μg/mL. Inoculated plates are incubated in ambient air at 37° C. for 18 to 24 hours. The organisms selected for testing included laboratory strains S. aureus ATCC 29213 and E. coli ATCC 25922 (strains purchased from American Type Culture Collection, Manassas, Va.) m, S. aureus FQR700699, and Paeruginosa 27853. The minimum inhibitory concentration (MIC) is determined as the lowest concentration of compound that inhibited visible growth of the test organism.
In general terms: Broth dilution looks for growth in wells or tubes with falling amounts of substance.

Data set [1] has as its system fluoroquinolone-resistant S. aureus ATCC 700699. Kind of data set: Minimum inhibitory concentration (MIC) assay, MRSA. The class given is cell-based. Conditions: Staphylococcus aureus, broth microdilution. The method, then:
as §1, §2, §3

For a further data set, the system named is Hep2. Put plainly: Cytotoxicity, cell viability staining with Alamar Blue. In kind it is cell-based, human. More on the design: unit not given here. As to conditions: Hep2 cells. As for the experimental part:
as §1
To determine whether the microcidal effect observed against S. aureus and E. coli is specific to bacterial cells, compounds are screened for cell viability effects on several human cell types.
Optimal cell density is first determined by plating cells in a 96-well plate standard sterile tissue culture plates in 100 μl media, 10% FBS at six cell densities from 500 cells/well to 15,000 cells/well. A cell free well containing only media is used as a control. Cells are incubated at 37° C. in a 5% CO2 incubator for 24 hours. 10% culture volume (10 ul) of Alamar Blue (Biosource, DAL1100, 100 mL) is then added. Cells are incubated at 37° C. in a 5% CO2 incubator and read in a Victor V plate reader, 544 nm excitation, 590 nm emission, at 3, 4, and 24 hours after the addition of Alamar Blue. The cell number vs. change in fluorescence is plotted to determine linearity of signal vs. cell number. The optimal density varies between 500-15,000 cells/well depending on the specific cell type. The optimal density is selected based on the highest number of cells that is still in the linear response range.
Cells are plated at optimal cell density in a standard sterile tissue culture 96 well plate, and incubated at 37° C., O/N in a 5% CO2 incubator. 12 to 48 hours post-plating media is removed. The cells are washed 1 or 2 times with 1×PBS and replaced with fresh media containing the test compound in 1% DMSO. 24 to 72 hours after addition of compound, the media is removed, and the cells washed 1 to 2 times with 1×PBS. Fresh media containing 1/10 volume of Alamar Blue is then added. Plates are incubated 4 hours at 37° C. in a 5% CO2 incubator and read in a Victor V plate reader, 544 nm excitation, 590 nm emission.
Compounds are diluted to 20 micromolar in 1% DMSO and media and screened in duplicate to obtain single concentration cytotoxicity data. Eight concentration points from 0.78 micromolar to 100 micromolar, run in duplicate, are used to determine cytotoxicity CC50 values. Cells with 1% DMSO and media are used as a negative control, compounds having a known CC50 against a particular cell type are used as positive controls.
The change in fluorescence vs. concentration of test compound is plotted to determine the cytotoxicity of the compound.
For orientation: The colour change of resazurin is a common sign of viable cells or microbes.

SMILES strings stand for the structures. Converted amounts (≈) assume the structure as drawn.

A word on the MIC: it is the lowest concentration found to suppress growth.

As for `COc1c(N2CC[C@@H](CNS(=O)(=O)c3cc(F)ccc3C)C2)c(F)cc2c(=O)c3c(OS(=O)(=O)c4cc(F)ccc4C)c(C(C)=O)sc3n(C3CC3)c12` [Compound 17, (R)-2-acetyl--cyclopropyl-6-fluoro-7-(3-((5-fluoro-2-methylphenylsulfonamido)methyl)pyrrolidin-1-yl)-8-methoxy-4-oxo-4,9-dihydrothieno[2,3-b] quinolin-3-yl 5-fluoro-2-methylbenzenesulfonate], the minimum inhibitory concentration (MIC) (in the data set on S. aureus ATCC 29213; in data set [1]) was more than 64 µg/mL each time.
On to `COc1c(N2CCCC(=C(F)CN)C2)c(F)cc2c(=O)c3c(O)c(C(C)=O)sc3n(C3CC3)c12` [Compound 6, 2-acetyl-7-(3-(2-amino-1-fluoroethylidene)piperidin-1-yl)-9-cyclopropyl-6-fluoro-3-hydroxy-8-methoxythieno [2,3-b]quinolin-4(9H)-one], for which the MIC was found to be 0.25 µg/mL (≈ 0.511 µM) against S. aureus ATCC 29213 and 0.5 µg/mL (≈ 1.02 µM) in data set [1].
Consider `COc1c(N2CC[C@@H](CNS(=O)(=O)c3cc(F)ccc3C)C2)c(F)cc2c(=O)c3c(O)c(C(C)=O)sc3n(C3CC3)c12` [Compound 16, (R)-N-((1-(2-acetyl-9-cyclopropyl-6-fluoro-3-hydroxy-8-methoxy-4-oxo-4,9-dihydrothieno [2,3-b]quinolin-7-yl)pyrrolidin-3-yl)methyl)-5-fluoro-2-methylbenzenesulfonamide], for which the MIC with S. aureus ATCC 29213 was 32 µg/mL (≈ 51.8 µM); in data set [1], more than 64 µg/mL.
Consider `COc1c(N2CC[C@@H]([C@H](C)N)C2)c(F)cc2c(=O)c3c(O)c(C(C)=O)sc3n(C3CC3)c12` [Compound 8, 2-acetyl-7-((R)-3-((S)-1-aminoethyl)pyrrolidin-1-yl)-9-cyclopropyl-6-fluoro-3-hydroxy-8-methoxythieno [2,3-b]quinolin-4(9H)-one], for which the MIC in the data set with S. aureus ATCC 29213 is 0.03 µg/mL (≈ 0.0653 µM); in data set [1], 0.13 µg/mL (≈ 0.283 µM). Moreover, the “Cytotoxicity Hep2” value in the data set on Hep2 was found to be 9.
In turn, `COc1c(N2CC[C@@H](CN)C2)c(F)cc2c(=O)c3c(O)csc3n(C3CC3)c12` [Compound 10, (S)-7-(3-(aminomethyl)pyrrolidin-1-yl)-9-cyclopropyl-6-fluoro-3-hydroxy-8-methoxythieno[2,3-b] quinolin-4(9H)-one] gave an MIC against S. aureus ATCC 29213 of 4 µg/mL (≈ 9.91 µM). The “Cytotoxicity Hep2” value in the data set on Hep2 is on record as 24.
As to `COc1c(N2CC[C@H](N)C2)c(F)cc2c(=O)c3c(O)c(C(C)=O)sc3n(C3CC3)c12` [Compound 7, (S)-2-acetyl-7-(3-aminopyrrolidin-1-yl)-9-cyclopropyl-6-fluoro-3-hydroxy-8-methoxythieno [2,3-b]quinolin-4(9H)-one], the MIC against S. aureus ATCC 29213 amounted to 0.13 µg/mL (≈ 0.301 µM); in data set [1] it was 0.25 µg/mL (≈ 0.579 µM). Besides, in the data set on Hep2, the “Cytotoxicity Hep2” value came to 35.
`COc1c(N2CC[C@@H](CNC(C)=O)C2)c(F)cc2c(=O)c3c(n(C4CC4)c12)SCC3=O` [Compound 14, (S)-N-((1-(9-cyclopropyl-6-fluoro-8-methoxy-3,4-dioxo-2,3,4,9-tetrahydrothieno [2,3-b]quinolin-7-yl)pyrrolidin-3-yl)methyl) acetamide]: the minimum inhibitory concentration (MIC) was 32 µg/mL (≈ 71.8 µM) in the data set on S. aureus ATCC 29213 and more than 64 µg/mL in data set [1].
`COc1c(N2CC[C@@H]([C@@H](C)N)C2)c(F)cc2c(=O)c3c(O)c(C(C)=O)sc3n(C3CC3)c12` [Compound 21, 2-acetyl-7-((R)-3-((R)-1-aminoethyl)pyrrolidin-1-yl)-9-cyclopropyl-6-fluoro-3-hydroxy-8-methoxythieno[2,3-b] quinolin-4(9H)-one]: the MIC stood at 0.13 µg/mL (≈ 0.283 µM) with S. aureus ATCC 29213 and 1 µg/mL (≈ 2.18 µM) in data set [1].
Taken in the same sequence, the figures for `COc1c(N2CC[C@@H]([C@H](C)NC(=O)OC(C)(C)C)C2)c(F)cc2c(=O)c3c(O)c(C(C)=O)sc3n(C3CC3)c12` [Compound 22, tert-butyl ((S)-1-((R)-1-(2-acetyl-9-cyclopropyl-6-fluoro-3-hydroxy-8-methoxy-4-oxo-4,9-dihydrothieno[2,3-b]quinolin-7-yl)pyrrolidin-3-yl)ethyl)carbamate] were more than 64 µg/mL and more than 64 µg/mL.
In the case of `COc1c(N2CC[C@H](NC(C)=O)C2)c(F)cc2c(=O)c3c(O)c(C(C)=O)sc3n(C3CC3)c12` [Compound 18, (S)-N-(1-(2-acetyl-9-cyclopropyl-6-fluoro-3-hydroxy-8-methoxy-4-oxo-4,9-dihydrothieno [2,3-b]quinolin-7-yl)pyrrolidin-3-yl)acetamide], the MIC amounted to 0.25 µg/mL (≈ 0.528 µM) in the data set with S. aureus ATCC 29213 and 1 µg/mL (≈ 2.11 µM) in data set [1].
Taken in the same sequence, the figures for `COc1c(N2CC[C@@H](CNC(=O)CN)C2)c(F)cc2c(=O)c3c(O)c(C(C)=O)sc3n(C3CC3)c12` [Compound 15, (S)-N-((1-(2-acetyl-9-cyclopropyl-6-fluoro-3-hydroxy-8-methoxy-4-oxo-4,9-dihydrothieno [2,3-b]quinolin-7-yl)pyrrolidin-3-yl)methyl)-2-aminoacetamide] were 0.5 µg/mL (≈ 0.995 µM) and 1 µg/mL (≈ 1.99 µM).
In the case of `COc1c(N2CC[C@@H]([C@H](C)NC(C)=O)C2)c(F)cc2c(=O)c3c(O)c(C(C)=O)sc3n(C3CC3)c12` [Compound 19, N-((S)-1-((R)-1-(2-acetyl-9-cyclopropyl-6-fluoro-3-hydroxy-8-methoxy-4-oxo-4,9-dihydrothieno[2,3-b]quinolin-7-yl)pyrrolidin-3-yl)ethyl) acetamide], the MIC was found to be 0.25 µg/mL (≈ 0.498 µM) with S. aureus ATCC 29213 and 0.5 µg/mL (≈ 0.997 µM) in data set [1].
For `COc1c(N2CC[C@@H]([C@H](C)N)C2)c(F)cc2c(=O)c3c(n(C4CC4)c12)SCC3=O` [Compound 20, 7-((R)-3-((S)-1-aminoethyl)pyrrolidin-1-yl)-9-cyclopropyl-6-fluoro-8-methoxythieno[2,3-b] quinoline-3,4(2H,9H)-dione], the minimum inhibitory concentration (MIC) with S. aureus ATCC 29213 turned out to be 4 µg/mL (≈ 9.58 µM); in data set [1] it was 16 µg/mL (≈ 38.3 µM).
For `COc1c(N2CC[C@@H](CNC(C)=O)C2)c(F)cc2c(=O)c3c(O)c(C(C)=O)sc3n(C3CC3)c12` [Compound 11, (S)-N-((1-(2-acetyl-9-cyclopropyl-6-fluoro-3-hydroxy-8-methoxy-4-oxo-4,9-dihydrothieno [2,3-b]quinolin-7-yl)pyrrolidin-3-yl)methyl) acetamide], the MIC in the data set on S. aureus ATCC 29213 was determined as 0.13 µg/mL (≈ 0.267 µM); in data set [1] it was 0.5 µg/mL (≈ 1.03 µM). The “Cytotoxicity Hep2” value in the data set with Hep2 was determined as 60.
Take `COc1c(N2CCC(CN)CC2)c(F)cc2c(=O)c3c(O)c(C(C)=O)sc3n(C3CC3)c12` [Compound 9, 2-acetyl-7-(4-(aminomethyl)piperidin-1-yl)-9-cyclopropyl-6-fluoro-3-hydroxy-8-methoxythieno[2,3-b] quinolin-4(9H)-one]: the values for the MIC (in the data set on S. aureus ATCC 29213; in data set [1]) were 0.25 µg/mL (≈ 0.544 µM) and 1 µg/mL (≈ 2.18 µM), respectively. For the same compound, in the data set on Hep2, the “Cytotoxicity Hep2” value stood at 42.
`COc1c(N2CC[C@H](CN)C2)c(F)cc2c(=O)c3c(O)c(C(C)=O)sc3n(C3CC3)c12` [Compound 13, (R)-2-acetyl-7-(3-(aminomethyl)pyrrolidin-1-yl)-9-cyclopropyl-6-fluoro-3-hydroxy-8-methoxythieno[2,3-b] quinolin-4(9H)-one]: the MIC came out at 0.13 µg/mL (≈ 0.292 µM) against S. aureus ATCC 29213 and 0.25 µg/mL (≈ 0.561 µM) in data set [1].
